Source: patent USRE38132E1, “Phenylpyrrolidines, phenylimidazolidines,3-phenyl-1,3-oxizolidines and 3-phenyl-1,3-thiazolidines and their use in the treatment of inflammatory disease” (Boehringer Ingelheim Pharmaceuticals, Inc., priority 1997, dated 2003)
Read-outs that look alike come from different tables or passages of the source.

Assays:
[1] = biological target: T1, interaction of ICAM-1 with the Leukointegrin CD18/CD11a (LFA-1) (Homo sapiens, UniProt P05107+P20701); assay: Assay to determine inhibition of LFA-1 binding to ICAM-1 (immunopurified LFA-1 on plate-bound sICAM-1, ELISA readout); details: values marked e approximated from incomplete dose-response curve
T1 construct: endogenous in cells; sICAM-1: made in house, secreted from transfected CHO DUX cells

[2] = test system: cell bound form of LFA-1 (CD18, CD11a) with ICAM-1, SKW3 cells; assay: Inhibition of SKW3 cell binding to ICAM-1 (PMA-stimulated); type: cell-based, human; details: Homo sapiens, read-out: Assay to Detect SKW3 Cells Binding to ICAM IC50
Outline: (§1)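 Plates coated with sICAM-1 (40 μg/mL) or fibronectin (100 μg/mL) for 1 h; SKW3 cells in RPMI/15% FBS activated with PMA (50 μg/mL final) added with compound, 2 h at 37° C. Unbound cells washed off; value is concentration (μM) giving 50% binding inhibition.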

[3] = test system: cell bound fibronectin receptor (VLA4) with fibronectin, SKW3 cells; assay: Inhibition of SKW3 cell binding to fibronectin (selectivity counter-assay); type: cell-based, human
Outline: as §1

[4] = test system: LFA-1 dependent aggregation of JY cells; assay: JY cell homotypic aggregation assay (PMA-stimulated); type: cell-based, human; details: Homo sapiens
Outline: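 JY cells (2·10^5 cells/well) in RPMI 1640 with 10% FCS incubated with test compound and […]; cells settle spontaneously and aggregation is scored at various time points. Values are concentrations (μM) giving 50% inhibition of binding.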

[5] = test system: allogeneic cell transplant response, popliteal lymph node; assay: In vivo allogeneic cell transplant model (popliteal lymph node weight); details: Mus musculus, po; mice, per os, dose at which 50% inhibition is observed; read-out: Allogeneic Cell Transplantation Assay ACT ED50
Source text: In vivo: Allogeneic Cell Transplant Model Purpose of Assay: The ability of cells to recognize other cells from self or from another genetically different individual (non-self) is an important property in maintaining the integrity of tissue and organ structure. The allogeneic cell transplant response is an important model for studies of transplant rejection and immunocompetence. This T-cell-mediated immune response can be induced in adult mice by the injection of lymphocytes from a histoincompatible mouse strain into the footpad . This response is characterized by T-cell proliferation which is limited to the popliteal lymph node that receives drainage from the injected footpad area. No in vitro system can completely duplicate this in vivo response. Thus, this animal model can be used to assess the ability of a test compound to suppress transplant rejection. Description of Assay Protocol: Experiments are conducted using male or female mice (20-26 grams). Any histoincompatible mouse strains suffice for donor and recipient populations. Typically DBA mice are used as donors and […] mice are used as recipients. A minimum of 1 week stabilization and conditioning period is required before use during which time the animals are maintained in accordance with the Animal Resource Center S.O.P. Each study utilizes 36 recipient mice divided into groups of 6. The tests last approximately four days. Donor mice are sacrificed by CO2 asphyxiation and spleens are removed and made into a cell suspension. The cells (1.0·10^7/metatarsal in 0.05 mL) are injected intra dermal (according to standard protocol) into the dorsal metatarsal skin of recipient mice. Four days later, the animals are sacrificed by CO2 asphyxiation and the popliteal nodes are removed and weighed. Groups of mice receiving putative immunosuppressive agents are dosed subcutaneously, intraperitoneally or orally one hour prior to cell injection and daily thereafter according to standard protocol. Student's T-test was used to determine significant differences between popliteal lymph nodes of groups of untreated mice and those mice treated with putative immunosuppressive agents (see: Kroczek, R. A.; Black, C. D. V.; Barbet, […]. Immunology, 1987, 139, 3597). Data are reported as the dose at which 50% inhibition is observed and the manner in which the compound was administered. In Table 23, the following legends are applicable: ^and=not determined. ^bpercent inhibition at 160 μg/mL. ^cno inhibition observed up to highest dose. Exact quantification not always possible due to intrinsic toxicity of compound (see MTT result). ^[…] inhibition (concentration in μM ). ^eapproximated from incomplete dose-response curve. ^fnot determined; compound is a synthesis intermediate.

T1 sequence (P20701 26-1170): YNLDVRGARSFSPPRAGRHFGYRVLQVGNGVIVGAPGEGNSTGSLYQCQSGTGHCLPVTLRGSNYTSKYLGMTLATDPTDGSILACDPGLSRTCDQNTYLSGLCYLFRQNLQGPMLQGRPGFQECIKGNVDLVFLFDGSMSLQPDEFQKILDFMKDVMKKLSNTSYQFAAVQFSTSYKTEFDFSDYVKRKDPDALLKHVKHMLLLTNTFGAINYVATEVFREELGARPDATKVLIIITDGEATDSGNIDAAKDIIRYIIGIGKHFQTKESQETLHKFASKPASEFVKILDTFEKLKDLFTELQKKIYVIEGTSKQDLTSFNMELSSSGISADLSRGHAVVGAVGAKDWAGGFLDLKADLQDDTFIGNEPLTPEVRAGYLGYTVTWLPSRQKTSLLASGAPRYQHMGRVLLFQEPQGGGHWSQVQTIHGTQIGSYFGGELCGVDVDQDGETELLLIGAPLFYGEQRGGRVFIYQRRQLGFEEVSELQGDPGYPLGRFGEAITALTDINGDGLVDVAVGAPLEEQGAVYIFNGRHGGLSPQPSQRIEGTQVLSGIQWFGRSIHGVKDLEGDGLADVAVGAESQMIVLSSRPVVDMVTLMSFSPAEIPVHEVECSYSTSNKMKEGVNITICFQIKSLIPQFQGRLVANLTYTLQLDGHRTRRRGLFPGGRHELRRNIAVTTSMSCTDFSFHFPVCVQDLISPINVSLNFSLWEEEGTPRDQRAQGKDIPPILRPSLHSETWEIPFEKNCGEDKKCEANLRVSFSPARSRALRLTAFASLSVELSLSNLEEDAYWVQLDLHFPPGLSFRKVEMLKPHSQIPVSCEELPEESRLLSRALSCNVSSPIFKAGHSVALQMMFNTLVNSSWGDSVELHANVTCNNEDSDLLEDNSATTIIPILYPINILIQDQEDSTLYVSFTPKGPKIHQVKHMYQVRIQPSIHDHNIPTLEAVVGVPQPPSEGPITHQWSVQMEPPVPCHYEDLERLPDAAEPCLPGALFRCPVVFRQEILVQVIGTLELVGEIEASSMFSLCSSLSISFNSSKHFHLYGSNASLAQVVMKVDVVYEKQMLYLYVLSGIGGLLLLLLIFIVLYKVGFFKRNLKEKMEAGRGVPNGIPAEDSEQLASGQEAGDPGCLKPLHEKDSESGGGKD
T1 sequence (P05107 23-769): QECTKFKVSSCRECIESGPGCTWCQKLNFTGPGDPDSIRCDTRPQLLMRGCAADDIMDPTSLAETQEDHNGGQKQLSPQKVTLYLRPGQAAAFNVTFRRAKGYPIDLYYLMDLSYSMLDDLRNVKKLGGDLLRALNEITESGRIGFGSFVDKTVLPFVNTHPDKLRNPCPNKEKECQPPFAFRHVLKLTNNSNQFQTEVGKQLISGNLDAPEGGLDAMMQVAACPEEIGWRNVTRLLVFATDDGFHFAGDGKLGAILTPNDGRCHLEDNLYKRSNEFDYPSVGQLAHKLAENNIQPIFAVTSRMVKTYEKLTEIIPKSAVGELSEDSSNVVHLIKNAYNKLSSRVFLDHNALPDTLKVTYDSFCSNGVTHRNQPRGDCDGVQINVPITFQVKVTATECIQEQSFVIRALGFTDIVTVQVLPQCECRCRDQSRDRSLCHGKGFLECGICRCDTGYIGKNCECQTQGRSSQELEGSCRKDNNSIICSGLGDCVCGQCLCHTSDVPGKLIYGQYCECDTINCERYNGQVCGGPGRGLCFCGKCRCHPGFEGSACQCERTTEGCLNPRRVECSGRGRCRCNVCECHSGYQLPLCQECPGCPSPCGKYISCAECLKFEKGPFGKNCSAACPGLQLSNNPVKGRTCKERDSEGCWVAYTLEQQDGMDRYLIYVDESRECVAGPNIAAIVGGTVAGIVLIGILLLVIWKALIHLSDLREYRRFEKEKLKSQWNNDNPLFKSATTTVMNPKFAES

Row | SMILES | Kd [1] [nM] | melting point [°C] | other results
1 | Cc1cc(C)cc(CC2(C)NC(=O)N(c3cc(Cl)cc(Cl)c3)C2=O)c1 (centres unmarked) [Example 50] | ~17000 | > 240 | –
2 | CC1(Cc2ccc(C(F)(F)F)c(F)c2F)NC(=O)N(c2cc(Cl)cc(Cl)c2)C1=O (centres unmarked) [Example 67] | 3540 | 163 to 164 | –
3 | CN1C(=O)N(c2cc(Cl)cc(Cl)c2)C(=O)[C@@]1(C)Cc1ccc(Br)cc1 [Example 271] | – | – | IC50 ([2]; SKW3): 3000 nM; Assay to Detect SKW3 Cells Binding to FIBRONECTIN IC50 ([3]; No inh = no inhibition observed up to highest dose, exact quantification not always possible due to intrinsic toxicity): No inh^c; IC50 [4]: 100 nM; ED50 [5]: ~20 mg/kg; Cellular Toxicity Assay MTT LD50 (SKW3 cells): 250 to 500 µM
4 | COc1c(F)c(F)c(CC2(C)NC(=O)N(c3cc(Cl)cc(Cl)c3)C2=O)c(F)c1F (centres unmarked) [Example 61] | 2350 | 122 to 123 | –
5 | CC1(Cc2ccccc2OC(F)(F)F)NC(=O)N(c2cc(Cl)cc(Cl)c2)C1=O (centres unmarked) [Example 66] | 2850 | 153 to 155 | –
6 | CC1(Cc2ccc(F)c(C(F)(F)F)c2)NC(=O)N(c2cc(Cl)cc(Cl)c2)C1=O (centres unmarked) [Example 69] | ~70000 | 168 to 170 | –
7 | CC(=O)N1C(=O)N(c2cc(Cl)cc(Cl)c2)C(=O)[C@@]1(C)Cc1ccc(-c2cccnc2)cc1 [Example 125] | 110 | – | IC50 ([2]; SKW3, values marked c: no inhibition observed up to highest dose): 1000 to 3000 nM; Assay to Detect SKW3 Cells Binding to FIBRONECTIN IC50 ([3]; values marked c: no inhibition observed up to highest dose): No inh^c; IC50 [4]: 400 nM; ED50 [5]: ~90 mg/kg; Cellular Toxicity Assay MTT LD50 (SKW3 cells): >400 µM

Now from value to compound, other results behind:

Row | Kd [1] [nM] | melting point [°C] | SMILES | other results
8 | 330 | 173 to 174 | CC1(Cc2ccc3c(Cl)cc(C(F)(F)F)nc3c2)NC(=O)N(c2cc(Cl)cc(Cl)c2)C1=O (centres unmarked) [Example 59] | –
9 | 1450 | 55 to 56 | CC1(Cc2ccc(Cl)s2)NC(=O)N(c2cc(Cl)cc(Cl)c2)C1=O (centres unmarked) [Example 64] | –
10 | 200 | 150 to 151 | CC1(Cc2ccc(Cl)c(Cl)c2)NC(=O)N(c2cc(Cl)cc(Cl)c2)C1=O (centres unmarked) [Example 55] | –
11 | 260 | 61 to 63 | CC1(Cc2ccc(-c3ccccc3)cc2)NC(=O)N(c2cc(Cl)cc(Cl)c2)C1=O (centres unmarked) [Example 49] | –
12 | 1320 | 170 to 171 | CC1(Cc2cccc(SC(F)(F)F)c2)NC(=O)N(c2cc(Cl)cc(Cl)c2)C1=O (centres unmarked) [Example 65] | –
13 | 420 | 117 to 118 | CC1(Cc2ccc(F)c(F)c2)NC(=O)N(c2cc(Cl)cc(Cl)c2)C1=O (centres unmarked) [Example 54] | –
14 | 160 | 67 to 69 | CC1(Cc2ccc(C(F)(F)F)c(F)c2)NC(=O)N(c2cc(Cl)cc(Cl)c2)C1=O (centres unmarked) [Example 62] | –
